Measured values: ChEMBL document CHEMBL5360573, “Discovery of novel tryptamine derivatives as GluN2B subunit-containing NMDA receptor antagonists via pharmacophore-merging strategy with orally available therapeutic effect of cerebral ischemia” (Eur J Med Chem, 2023)
Activity calls are given as the source filed them. No cut-off for these calls is given here.

Tests used:
SH-SY5Y [1] = experiment: Neuroprotective activity against NMDA-induced cell injury in human SH-SY5Y cells assessed as cell viability at 0.05 uM incubated for 6 hrs followed by NMDA treatment for 0.5 hrs and subsequent replacement of fresh medium without compounds by MTT assay relative to control; format: functional; details: time 6.5 hrs, read-out: Activity
SH-SY5Y [2] = experiment: Neuroprotective activity against NMDA-induced cell injury in human SH-SY5Y cells assessed as cell viability at 0.5 uM incubated for 6 hrs followed by NMDA treatment for 0.5 hrs and subsequent replacement of fresh medium without compounds by MTT assay relative to control; format: functional; details: time 6.5 hrs, read-out: Activity
SH-SY5Y [3] = experiment: Neuroprotective activity against NMDA-induced cell injury in human SH-SY5Y cells assessed as cell viability at 5 uM incubated for 6 hrs followed by NMDA treatment for 0.5 hrs and subsequent replacement of fresh medium without compounds by MTT assay relative to control; format: functional; details: time 6.5 hrs, read-out: Activity
[4] = target: Glutamate receptor ionotropic, NMDA 2B (Homo sapiens) (UniProt Q13224); experiment: Antagonist activity against GluN2B NMDAR in human SH-SY5Y cells assessed as reduction in NMDA-induced intracellular influx at 5 uM incubated for 6 hrs followed by replacement of fresh medium without compounds and subsequent NMDA treatment by Fluo-4AM dye based calcium mobilization assay; format: cell-based; details: filed as antagonist
[5] = target: Glutamate receptor ionotropic, NMDA 2B (Homo sapiens) (UniProt Q13224); experiment: Antagonist activity against GluN2B NMDAR in human SH-SY5Y cells assessed as increase in NMDA-induced downregulation of phosphorylated ERK1/2 at 0.05 to 5 uM incubated for 6 hrs followed by NMDA treatment for 0.5 hrs and subsequent replacement of fresh medium without compounds by Western blot analysis; format: cell-based; details: filed as antagonist, dose 0.05-5 µM, time 6.5 hrs
[6] = Metabolic stability in human plasma assessed as compound remaining at 2 uM measured immediately by LC-MS/MS analysis; format: ADME, cell-free; details: read-out: Stability
[7] = Metabolic stability in human plasma assessed as compound remaining at 2 uM measured after 10 mins by LC-MS/MS analysis; format: ADME, cell-free; details: read-out: Stability
[8] = Metabolic stability in human plasma assessed as compound remaining at 2 uM measured after 30 mins by LC-MS/MS analysis; format: ADME, cell-free; details: read-out: Stability
[9] = Metabolic stability in human plasma assessed as compound remaining at 2 uM measured after 60 mins by LC-MS/MS analysis; format: ADME, cell-free; details: read-out: Stability
[10] = Metabolic stability in human plasma assessed as compound remaining at 2 uM measured after 120 mins by LC-MS/MS analysis; format: ADME, cell-free; details: read-out: Stability
[11] = Metabolic stability in human plasma assessed as half life at 2 uM by LC-MS/MS analysis; format: ADME, cell-free
[12] = Half life in C57 mouse at 10 mg/kg, po measured for 20 mins by LC-MS/MS analysis; format: ADME, organism-based; details: in vivo
[13] = Tmax in C57 mouse at 10 mg/kg, po measured for 20 mins by LC-MS/MS analysis; format: ADME, organism-based; details: in vivo
[14] = Cmax in C57 mouse at 10 mg/kg, po measured for 20 mins by LC-MS/MS analysis; format: ADME, organism-based; set-up: dose 10 mg/kg, time 20 min, route po; details: in vivo
[15] = AUC (0 to t) in C57 mouse at 10 mg/kg, po measured for 20 mins by LC-MS/MS analysis; format: ADME, organism-based; set-up: time 20 min, dose 10 mg/kg, route po; details: in vivo
[16] = AUC (0 to infinity) in C57 mouse at 10 mg/kg, po measured for 20 mins by LC-MS/MS analysis; format: ADME, organism-based; set-up: dose 10 mg/kg, time 20 min, route po; details: in vivo
[17] = MRT (0 to t) in C57 mouse at 10 mg/kg, po measured for 20 mins by LC-MS/MS analysis; format: ADME, organism-based; details: in vivo
[18] = MRT (0 to infinity) in C57 mouse at 10 mg/kg, po measured for 20 mins by LC-MS/MS analysis; format: ADME, organism-based; details: in vivo
[19] = Oral bioavailability in C57 mouse at 10 mg/kg measured for 20 mins by LC-MS/MS analysis; format: ADME, organism-based; details: in vivo
[20] = Half life in C57 mouse at 1 mg/kg, iv measured for 20 mins by LC-MS/MS analysis; format: ADME, organism-based; details: in vivo
[21] = Tmax in C57 mouse at 1 mg/kg, iv measured for 20 mins by LC-MS/MS analysis; format: ADME, organism-based; details: in vivo
[22] = Cmax in C57 mouse at 1 mg/kg, iv measured for 20 mins by LC-MS/MS analysis; format: ADME, organism-based; set-up: dose 1 mg/kg, time 20 min, route iv; details: in vivo
[23] = AUC (0 to t) in C57 mouse at 1 mg/kg, iv measured for 20 mins by LC-MS/MS analysis; format: ADME, organism-based; set-up: time 20 min, dose 1 mg/kg, route iv; details: in vivo
[24] = AUC (0 to infinity) in C57 mouse at 1 mg/kg, iv measured for 20 mins by LC-MS/MS analysis; format: ADME, organism-based; set-up: dose 1 mg/kg, time 20 min, route iv; details: in vivo
[25] = Clearance in C57 mouse at 1 mg/kg, iv measured for 20 mins by LC-MS/MS analysis; format: ADME, organism-based; details: in vivo
[26] = MRT (0 to t) in C57 mouse at 1 mg/kg, iv measured for 20 mins by LC-MS/MS analysis; format: ADME, organism-based; details: in vivo
[27] = MRT (0 to infinity) in C57 mouse at 1 mg/kg, iv measured for 20 mins by LC-MS/MS analysis; format: ADME, organism-based; details: in vivo
Mus musculus [28] = experiment: Neuroprotective activity against ICV-ET1-induced cerebral ischemia injury C57BL/6J mouse model assessed as improvement of spontaneous alternation behavior administered orally daily for 10 days by Y-maze test; format: functional, organism-based; details: dose 20-80 mg/kg, route po, time 10.0 day
Mus musculus [29] = experiment: Neuroprotective activity against ICV-ET1-induced cerebral ischemia injury C57BL/6J mouse model assessed as increase in preferential index at 20 to 80 mg/kg, po administered daily measured on day 11 to 13 by novel object recognition test; format: functional, organism-based; details: dose 20-80 mg/kg, time 11-13 day
Mus musculus [30] = experiment: Neuroprotective activity against ICV-ET1-induced cerebral ischemia injury C57BL/6J mouse model assessed as improvement in escape latency at 20 to 80 mg/kg, po administered daily measured on day 14 to 19 by Morris water maze test; format: functional, organism-based; details: dose 20-80 mg/kg, time 14-19 day
Mus musculus [31] = experiment: Neuroprotective activity against ICV-ET1-induced cerebral ischemia injury C57BL/6J mouse model assessed as improvement in swimming distance at 20 to 80 mg/kg, po administered daily measured on day 14 to 19 by Morris water maze test; format: functional, organism-based; details: dose 20-80 mg/kg, time 14-19 day

Sequence of Glutamate receptor ionotropic, NMDA 2B (Homo sapiens) (Q13224 27-1484 limits assumed): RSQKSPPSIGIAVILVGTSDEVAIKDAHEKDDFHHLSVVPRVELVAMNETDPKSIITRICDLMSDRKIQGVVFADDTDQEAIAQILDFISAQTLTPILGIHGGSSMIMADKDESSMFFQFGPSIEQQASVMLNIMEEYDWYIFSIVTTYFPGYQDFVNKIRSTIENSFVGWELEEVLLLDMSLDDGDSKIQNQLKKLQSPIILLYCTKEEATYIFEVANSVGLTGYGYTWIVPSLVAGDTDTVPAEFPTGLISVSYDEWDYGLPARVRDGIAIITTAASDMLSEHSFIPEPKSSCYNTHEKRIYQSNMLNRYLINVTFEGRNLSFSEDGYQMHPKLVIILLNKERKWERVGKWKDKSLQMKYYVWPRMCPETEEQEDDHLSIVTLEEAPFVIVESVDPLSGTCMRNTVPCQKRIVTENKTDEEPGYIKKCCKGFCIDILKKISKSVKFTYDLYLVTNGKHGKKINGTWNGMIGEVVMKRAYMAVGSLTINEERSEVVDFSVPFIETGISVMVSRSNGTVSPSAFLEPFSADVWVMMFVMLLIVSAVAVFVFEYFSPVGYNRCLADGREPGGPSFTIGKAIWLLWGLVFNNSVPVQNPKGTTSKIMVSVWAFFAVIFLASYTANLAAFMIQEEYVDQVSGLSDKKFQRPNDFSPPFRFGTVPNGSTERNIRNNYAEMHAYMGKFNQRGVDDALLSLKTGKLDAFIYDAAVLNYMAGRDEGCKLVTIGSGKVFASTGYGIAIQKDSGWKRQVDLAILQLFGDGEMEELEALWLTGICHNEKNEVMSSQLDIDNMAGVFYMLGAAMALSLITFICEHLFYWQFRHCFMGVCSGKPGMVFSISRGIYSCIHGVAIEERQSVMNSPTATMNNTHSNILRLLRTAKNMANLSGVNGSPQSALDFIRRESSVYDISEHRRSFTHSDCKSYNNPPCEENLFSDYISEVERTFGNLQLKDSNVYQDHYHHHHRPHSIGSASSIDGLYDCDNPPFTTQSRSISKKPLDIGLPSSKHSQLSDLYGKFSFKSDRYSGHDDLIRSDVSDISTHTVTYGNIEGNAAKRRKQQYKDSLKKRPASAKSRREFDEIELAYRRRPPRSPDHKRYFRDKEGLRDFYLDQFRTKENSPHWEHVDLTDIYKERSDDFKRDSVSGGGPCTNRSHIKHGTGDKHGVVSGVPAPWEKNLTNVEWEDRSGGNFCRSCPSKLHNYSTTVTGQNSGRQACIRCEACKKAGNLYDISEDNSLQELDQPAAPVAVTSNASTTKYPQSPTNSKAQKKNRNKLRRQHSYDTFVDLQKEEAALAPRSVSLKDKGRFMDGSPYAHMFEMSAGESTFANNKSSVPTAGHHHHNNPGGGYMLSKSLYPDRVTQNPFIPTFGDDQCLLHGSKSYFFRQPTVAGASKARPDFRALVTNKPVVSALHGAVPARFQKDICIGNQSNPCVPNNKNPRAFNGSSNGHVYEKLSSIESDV

COc1ccc(Cn2cc(CCNC(=O)/C=C/c3ccc(O)cc3)c3ccccc32)cc1
viability at 0.05 µM (SH-SY5Y [1]): 18.6% | viability at 0.5 µM (SH-SY5Y [2]): 24.8% | viability at 5 µM (SH-SY5Y [3]): 30.9%

O=C(/C=C/c1ccc(O)cc1)NCCc1cn(Cc2cccc(Br)c2)c2ccccc12
viability at 0.05 µM (SH-SY5Y [1]): 35.7% | viability at 0.5 µM (SH-SY5Y [2]): 48.8% | viability at 5 µM (SH-SY5Y [3]): 55.8% | Activity [4]: Active | Activity [5]: Active | remaining at 0 min, 2 µM [6]: 100% | remaining at 10 min, 2 µM [7]: 97.5% | remaining at 0.5 h, 2 µM [8]: 98.8% | remaining at 1 h, 2 µM [9]: 100% | remaining at 2 h, 2 µM [10]: 100% | half-life at 2 µM [11]: > 289 min | half-life [12]: 66.6 min | Tmax [13]: 30 min | Cmax [14]: 182 ng/mL | AUC(0-t) at 20 min [15]: 261 ng·h/mL | AUC(0-inf) [16]: 269 ng·h/mL | MRT last at 20 min [17]: 74.4 min | MRT inf [18]: 85.2 min | bioavailability [19]: 3.12% | half-life [20]: 40.2 min | Tmax [21]: 4.98 min | Cmax [22]: 1910 ng/mL | AUC(0-t) at 20 min [23]: 860 ng·h/mL | AUC(0-inf) [24]: 863 ng·h/mL | clearance [25]: 20.4 mL/min/kg | MRT last at 20 min [26]: 26.4 min | MRT inf [27]: 27 min | Activity (Mus musculus [28]): Dose-Dependent Effect | Activity (Mus musculus [29]): Active | Activity (Mus musculus [30]): Active | Activity (Mus musculus [31]): Active

O=C(Cc1ccc(O)cc1)NCCc1cn(Cc2ccccc2)c2ccccc12
viability at 0.05 µM (SH-SY5Y [1]): 21.1% | viability at 0.5 µM (SH-SY5Y [2]): 42.2% | viability at 5 µM (SH-SY5Y [3]): 41%

O=C(/C=C/c1ccc(O)c(O)c1)NCCc1cn(Cc2ccccc2)c2ccccc12
viability at 0.05 µM (SH-SY5Y [1]): 34.8% | viability at 0.5 µM (SH-SY5Y [2]): 47.1% | viability at 5 µM (SH-SY5Y [3]): 48.2%

O=C(/C=C/c1ccc(O)cc1)NCCc1cn(Cc2cccc(F)c2)c2ccccc12
viability at 0.05 µM (SH-SY5Y [1]): 28.6% | viability at 0.5 µM (SH-SY5Y [2]): 21.8% | viability at 5 µM (SH-SY5Y [3]): 18.8%

O=C(/C=C/c1ccc(O)cc1)NCCc1cn(Cc2ccc(F)cc2)c2ccccc12
viability at 0.05 µM (SH-SY5Y [1]): 35.8% | viability at 0.5 µM (SH-SY5Y [2]): 49.8% | viability at 5 µM (SH-SY5Y [3]): 20.8%

O=C(NCCc1cn(Cc2ccccc2)c2ccccc12)c1ccc(O)c(O)c1
viability at 0.05 µM (SH-SY5Y [1]): 29.4% | viability at 0.5 µM (SH-SY5Y [2]): 32.1% | viability at 5 µM (SH-SY5Y [3]): 44.9%

O=C(/C=C/c1ccc(O)cc1)NCCc1cn(Cc2ccccc2)c2ccccc12
viability at 0.05 µM (SH-SY5Y [1]): 33% | viability at 0.5 µM (SH-SY5Y [2]): 42.8% | viability at 5 µM (SH-SY5Y [3]): 52.8%

Cc1ccc(Cn2cc(CCNC(=O)/C=C/c3ccc(O)cc3)c3ccccc32)cc1
viability at 0.05 µM (SH-SY5Y [1]): 19.4% | viability at 0.5 µM (SH-SY5Y [2]): 28.4% | viability at 5 µM (SH-SY5Y [3]): 21%

CCCCn1cc(CCNC(=O)/C=C/c2ccc(O)cc2)c2ccccc21
viability at 0.05 µM (SH-SY5Y [1]): 24.3% | viability at 0.5 µM (SH-SY5Y [2]): 24.1% | viability at 5 µM (SH-SY5Y [3]): 19.3%

CC(C(O)c1ccc(O)cc1)N1CCC(Cc2ccccc2)CC1 (centres undefined) [IFENPRODIL]
viability at 0.05 µM (SH-SY5Y [1]): 29.4% | viability at 0.5 µM (SH-SY5Y [2]): 40.4% | viability at 5 µM (SH-SY5Y [3]): 41% | Activity [4]: Active | remaining at 0 min, 2 µM [6]: 100% | remaining at 10 min, 2 µM [7]: 97% | remaining at 0.5 h, 2 µM [8]: 89.6% | remaining at 1 h, 2 µM [9]: 93.5% | remaining at 2 h, 2 µM [10]: 91.3% | half-life at 2 µM [11]: > 289 min

O=C(/C=C/c1ccc(O)cc1)NCCc1cn(CCCc2ccccc2)c2ccccc12
viability at 0.05 µM (SH-SY5Y [1]): 20.1% | viability at 0.5 µM (SH-SY5Y [2]): 19.3% | viability at 5 µM (SH-SY5Y [3]): 12.5%

CC(C)Cn1cc(CCNC(=O)/C=C/c2ccc(O)cc2)c2ccccc21
viability at 0.05 µM (SH-SY5Y [1]): 24.9% | viability at 0.5 µM (SH-SY5Y [2]): 15.7% | viability at 5 µM (SH-SY5Y [3]): 14.4%
